Laboratory results published in publication PMC12453121, “The combined effects of tick defensin persulcatusin with conventional antibiotics and antimicrobial proteins/peptides against Staphylococcus aureus” (Microbiology, 2025).
Values joined by “and” are separate entries in the source; they are usually repeats but may differ in a detail not shown here. Identical values can stand only once. Like-named read-outs stand apart in the source and are kept apart here. Where a SMILES comes first, the peptide text is derived from it. Bridges are numbered along the chain shown (N, C = ends). Where no end group is shown, it is not given here. [ ]: non-standard residue; d: D form. The star is where a group is joined. Ileψ(thiazoline)Cys = CC[C@H](C)[C@H](N)C1=N[C@H](C(=O)*)CS1; dOrn = NCCC[C@@H](N)C(=O)O

Legend:
S. aureus ATCC 29213 [1] = details: for combined effect with IP (interpretation of FICI): named agent combined with IP, S. aureus ATCC 29213
Protocol: A checkerboard assay was performed to evaluate the combined effect of IP and conventional antibiotics using the broth microdilution method [3031] with a final inoculum concentration of 5×10^5 c.f.u. ml^−1. Bacterial cells cultured in MHB at 30 °C were suspended in MHB or cation-adjusted MHB (caMHB) for daptomycin treatment. Bacterial suspensions were dispensed into 96-well round polypropylene plates (Watson Bio Lab, Tokyo, Japan) at an inoculum concentration of 5.0×10^5 c.f.u. ml^−1. […] After incubation at 30 °C, the OD of each well was measured using a microplate reader (MTP-310; Corona Electric Co., Ltd., Ibaraki, Japan) at 660 nm (OD660). […] The fractional inhibitory concentration (FIC) was calculated as the MIC of drug A in combination with drug B divided by drug A alone. The FIC index (FICI) was calculated as the sum of each FIC, and the lowest FICI for each combination was interpreted as follows: FICI of <0.5 was defined as synergy, FICI of ≥0.5 but <1 was defined as partial synergy, FICI of ≥1 but <4 was defined as an additive effect or irrelevant and FICI of ≥4 was defined as antagonistic.

S. aureus ATCC 29213 [2] = experiment: Killing kinetic assay of daptomycin with or without IP pretreatment; type: cell-based, Staphylococcus aureus; details: c.f.u. count, triplicate
Protocol: To examine the influence of S. aureus pretreated with IP on the efficacy of daptomycin against bacterial cells, a killing kinetic assay based on a modification of Grein’s method was conducted. Bacterial cells grown in MHB to the exponential growth phase were incubated with 16 µg ml^−1 IP (8×MIC) at 37 °C. Since IP interacts with the cell surface of S. aureus, causing depolarization within 15 min after incubation, the duration of the pretreatment with IP was set to […]. The cells were then centrifuged (5,000 g, 5 min, 25 °C), and the supernatant was discarded to remove IP. Pretreated cells were resuspended in caMHB with or without 10 µg ml^−1 daptomycin (10×MIC) and then incubated at 37 °C for 0, 15, 30, 60 and 120 min. The bacterial cells were then serially diluted with sterile PBS, and each dilution was plated on TSA plates. The colonies were left to incubate at 37 °C and were subsequently counted.

S. aureus ATCC 29213 [3] = experiment: Killing kinetic assay of IP or vancomycin in growth and non-growth states; type: cell-based, Staphylococcus aureus; details: 30 °C; for survival rate in the non-growth state: 1×10^8 c.f.u./ml, within 0.5 h then constant, % of c.f.u./ml at 0 h, triplicate; for survival rate in the non-growth state / time after which bactericidal activity / reduction of survival rate appeared in growth cells: IP 32 µg/ml or vancomycin 16 µg/ml (8×MIC); for time after which bactericidal activity / reduction of survival rate appeared in growth cells: growth state (TSB, LB Lennox or MHB)
Protocol: To study the antimicrobial effect of IP on S. aureus cells in both the growth and non-growth states, a killing kinetic assay of IP against S. aureus incubated in nutrient medium was performed as per the method described below or in the physiological buffer (PBS). Bacterial cells grown in TSB for ~24 h were adjusted to 1×10^8 c.f.u. ml^−1 in TSB, LB Lennox broth, MHB or PBS with 32 µg ml^−1 IP or 16 µg ml^−1 vancomycin, as control for antibiotic inhibited cell wall biosynthesis via interaction with lipid II, followed by incubation at 30 ℃ for a further 0.5, 1, 2, 4, 6 and 8 h. Bacterial cells were then serially diluted with sterile PBS, plated on TSA and incubated overnight at 37 °C. Colony counts were then determined, and c.f.u. ml^−1 was calculated.

S. aureus [4] = details: IP on cell surface of S. aureus; cited from earlier work
S. aureus [5] = tested on: S. aureus; set-up: method as in PMID 22705395; details: cited from earlier work
[6] = named agent combined with IP (0.25–16 µg/ml), checkerboard broth microdilution in MHB (caMHB for daptomycin), 5×10^5 c.f.u./ml, 30 °C, no growth = OD660 <0.05, lowest FICI

Row | Compound | FICI (fractional inhibitory concentration index) (S. aureus ATCC 29213 [1]; [6]) | combined effect with IP (interpretation of FICI) (S. aureus ATCC 29213 [1]; checkerboard) | also measured
1 | CC[C@H](C)[C@H](NC(=O)[C@H](CCCCN)NC(=O)[C@H](CCC(=O)O)NC(=O)[C@H](CCCCN)NC(=O)[C@H](CO)NC(=O)[C@H](CCCCN)NC(=O)[C@H](CCCNC(=N)N)NC(=O)[C@H](Cc1ccccc1)NC(=O)[C@H](Cc1ccccc1)NC(=O)[C@H](CC(=O)O)NC(=O)CNC(=O)[C@H](CC(C)C)NC(=O)[C@@H](N)CC(C)C)C(=O)NCC(=O)N[C@@H](CCCCN)C(=O)N[C@@H](CCC(=O)O)C(=O)N[C@@H](Cc1ccccc1)C(=O)N[C@@H](CCCCN)C(=O)N[C@@H](CCCNC(=N)N)C(=O)N[C@H](C(=O)N[C@H](C(=O)N[C@@H](CCC(N)=O)C(=O)N[C@@H](CCCNC(=N)N)C(=O)N[C@H](C(=O)N[C@@H](CCCCN)C(=O)N[C@@H](CC(=O)O)C(=O)N[C@@H](Cc1ccccc1)C(=O)N[C@@H](CC(C)C)C(=O)N[C@@H](CCCNC(=N)N)C(=O)N[C@@H](CC(N)=O)C(=O)N[C@@H](CC(C)C)C(=O)N[C@H](C(=O)N1CCC[C@H]1C(=O)N[C@@H](CCCNC(=N)N)C(=O)N[C@H](C(=O)N[C@@H](CCC(=O)O)C(=O)N[C@@H](CO)C(=O)O)[C@@H](C)O)C(C)C)[C@@H](C)CC)C(C)C)[C@@H](C)CC [LL-37] | 0.25 | synergistic | 
2 | CC1(C)S[C@@H]2[C@H](NC(=O)[C@H](N)c3ccccc3)C(=O)N2[C@H]1C(=O)O [ampicillin, Ampicillin] | 0.375 and 0.38 | synergistic | 
3 | CC[C@H](C)[C@H](N)C1=N[C@H](C(=O)N[C@@H](CC(C)C)C(=O)N[C@H](CCC(=O)O)C(=O)N[C@H](C(=O)N[C@H]2CCCCNC(=O)[C@H](CC(N)=O)NC(=O)[C@@H](CC(=O)O)NC(=O)[C@H](Cc3cnc[nH]3)NC(=O)[C@@H](Cc3ccccc3)NC(=O)[C@H]([C@@H](C)CC)NC(=O)[C@@H](CCCN)NC2=O)[C@@H](C)CC)CS1 [bacitracin, Bacitracin] ({Ileψ(thiazoline)Cys}-L[dE]IK[dOrn]I[dF]H[dD]N; lactam 4-C (inferred); N-terminus assumed) | 0.50 | Partial synergistic | 
4 | Cc1nnc(SCC2=C(C(=O)O)N3C(=O)[C@@H](NC(=O)Cn4cnnn4)[C@H]3SC2)s1 [cefazolin, Cefazolin] | 0.75 | Partial synergistic | 
5 | O=C(N[C@H](CO)[C@H](O)c1ccc([N+](=O)[O-])cc1)C(Cl)Cl [chloramphenicol, Chloramphenicol] | 2.0 | additive or irrelevant | 
6 | O=C(O)c1cn(C2CC2)c2cc(N3CCNCC3)c(F)cc2c1=O [ciprofloxacin, Ciprofloxacin] |  | Partial synergistic | 
7 | CCCCCCCCCC(=O)N[C@@H](Cc1c[nH]c2ccccc12)C(=O)N[C@H](CC(N)=O)C(=O)N[C@@H](CC(=O)O)C(=O)N[C@@H]1C(=O)NCC(=O)N[C@@H](CCCN)C(=O)N[C@@H](CC(=O)O)C(=O)N[C@H](C)C(=O)N[C@@H](CC(=O)O)C(=O)NCC(=O)N[C@H](CO)C(=O)N[C@@H]([C@H](C)CC(=O)O)C(=O)N[C@@H](CC(=O)c2ccccc2N)C(=O)O[C@@H]1C [daptomycin, Daptomycin] |  | additive, irrelevant or antagonistic | time to significant reduction in bacterial cells (bactericidal activity) (S. aureus ATCC 29213 [2]; daptomycin 10 µg/ml (10×MIC), caMHB, 37 °C, no pretreatment, P<0.05): ≤ 2 h; FICI (fractional inhibitory concentration index) (S. aureus ATCC 29213 [1]): exceeded 2.0; MIC in the presence of sublethal concentrations of IP compared with absence of IP (S. aureus ATCC 29213 [1]; IP 0.25 to 1 µg/ml for nisin, 0.25 to 4 µg/ml for daptomycin, checkerboard): higher
8 | CC[C@H]1OC(=O)[C@H](C)[C@@H](O[C@H]2C[C@@](C)(OC)[C@@H](O)[C@H](C)O2)[C@H](C)[C@@H](O[C@@H]2O[C@H](C)C[C@H](N(C)C)[C@H]2O)[C@](C)(O)C[C@@H](C)C(=O)[C@H](C)[C@@H](O)[C@]1(C)O [erythromycin, Erythromycin] | 2.0 | additive or irrelevant | 
9 | NC[C@H]1O[C@H](O[C@H]2[C@H](O)[C@@H](O[C@H]3O[C@H](CO)[C@@H](O)[C@H](N)[C@H]3O)[C@H](N)C[C@@H]2N)[C@H](O)[C@@H](O)[C@@H]1O [kanamycin, Kanamycin] | 2.0 | additive or irrelevant | 
10 | CN(C)[C@@H]1C(O)=C(C(N)=O)C(=O)[C@@]2(O)C(O)=C3C(=O)c4c(O)cccc4[C@@](C)(O)[C@H]3C[C@@H]12 [tetracycline, Tetracycline] | 0.75 | Partial synergistic | 
11 | CN[C@H](CC(C)C)C(=O)N[C@H]1C(=O)N[C@@H](CC(N)=O)C(=O)N[C@H]2C(=O)N[C@H]3C(=O)N[C@H](C(=O)N[C@H](C(=O)O)c4cc(O)cc(O)c4-c4cc3ccc4O)[C@H](O)c3ccc(c(Cl)c3)Oc3cc2cc(c3O[C@@H]2O[C@H](CO)[C@@H](O)[C@H](O)[C@H]2O[C@H]2C[C@](C)(N)[C@H](O)[C@H](C)O2)Oc2ccc(cc2Cl)[C@H]1O [vancomycin, Vancomycin] |  | additive or irrelevant | survival rate in the non-growth state (S. aureus ATCC 29213 [3]; PBS): no reduction; time after which bactericidal activity / reduction of survival rate appeared in growth cells (S. aureus ATCC 29213 [3]): 8 h; FICI (fractional inhibitory concentration index) (S. aureus ATCC 29213 [1]): 2.0
12 | GFGCPFNQGACHRHCRSIGRRGGYCAGLFKQTCTCYSR (disulfide (positions not given here)) [IP, Persulcatusin, Tick defensin isolated from the hard tick Ixodes persulcatus, 38 aa, chemically synthesized, disulphide bridges formed] |  |  | time to depolarization after incubation (S. aureus [4]): ≤ 15 min; effect of short-term IP pretreatment on killing by daptomycin (S. aureus ATCC 29213 [2]; IP 16 µg/ml (8×MIC) for 5 min at 37 °C, removed, then daptomycin 10 µg/ml in caMHB): reduced the bactericidal activity of daptomycin; survival rate in the non-growth state (S. aureus ATCC 29213 [3]; PBS): ~ 70%; time to bactericidal activity in PBS (non-growth state) (S. aureus ATCC 29213 [3]; PBS, IP 8×MIC, survival constant thereafter): ≤ 0.5 h; time after which bactericidal activity / reduction of survival rate appeared in growth cells (S. aureus ATCC 29213 [3]): 2 h
13 | Gentamycin | 1.0 | additive or irrelevant | 
14 | Lysostaphin | 0.75 | Partial synergistic | 
15 | Lysozyme |  | Partial synergistic | 
16 | Nisin (ITSISLCTPGCKTGALMGCNMKTATCHCSIHVSK; also: lantibiotic: lanthionine rings and dehydro residues, not placed; UniProt P13068 24-57, looked up) |  | Partial synergistic | FICI (fractional inhibitory concentration index) (S. aureus ATCC 29213 [1]): 0.63; MIC in the presence of sublethal concentrations of IP compared with absence of IP (S. aureus ATCC 29213 [1]): higher
17 | areucin-1: antimicrobial peptide isolated from the marine polychaete lugworm Arenicola marina (printed arenicin-1 in b7) (RWCVYAYVRVRGVLVRYRRCW; ends and bridges not checked; cysteine pairing not given here; UniProt Q5SC60 182-202, looked up) |  |  | FICI with chloramphenicol (S. aureus [5]; areucin-1 combined with chloramphenicol against S. aureus): 0.5; FICI with erythromycin (S. aureus [5]; areucin-1 combined with erythromycin against S. aureus): 0.375
